According to the OligoGym collection:
Where “and” joins values, the source holds several entries; their conditions need not be identical. Equal values may be shown once. After the bases stand the sugars from the 5' end (letter, count) and the backbone: PS all phosphorothioate, else s phosphorothioate and o phosphodiester by linkage. Methylation of C is not given here. e = 2'-O-(2-methoxyethyl) (MOE); k = constrained ethyl (cEt); d = 2'-deoxy (DNA)

Target: SOD1
Details: ASO

In the case of “CTTCCCCACACCTTCA (sugars kekeddddddddekek, linkages s1 o3 s8 o1 s2)”, the target mRNA inhibition (A431, 0.12 µM) is reported as 0%, the target mRNA inhibition (A431, 0.6 µM) is reported as 8% and the target mRNA inhibition (A431, 3 µM) is reported as 8%. The target mRNA inhibition (A431, 15 µM) was 18%, the target mRNA inhibition (HepG2, 0.222 µM) was 8% and the target mRNA inhibition (HepG2, 0.667 µM) was 14%. For the same sequence, the target mRNA inhibition (HepG2, 2 µM) was 51% and the target mRNA inhibition (HepG2, 6 µM) was 76%.

In the case of “CTTTGGCCCACCGTGTT (sugars e3 k2 d7 k2 e3, PS)”, the target mRNA inhibition (HepG2, 3 µM) is reported as 41%.

“CTTTTAATAGCCTCATA (sugars e2 k2 d8 k2 e3, PS)” showed a target mRNA inhibition (HepG2, 5 µM) of 45%.

“CTTTTAATAGCCTCATA (sugars e2 k2 d9 k2 e2, PS)” gave a target mRNA inhibition (HepG2, 5 µM) of 34%.

In the case of “GACACATCGGCCACACCATC (sugars e5 d10 e5, PS)”, the target mRNA inhibition (HepG2, 5 µM) is reported as 45% and 30%.

Work on “GACCTGCACTGGTACAG (sugars e3 k2 d7 k2 e3, PS)” yielded a target mRNA inhibition (HepG2, 3 µM) of 7%.

With “GACTACGACGCAAACCAGCA (sugars e5 d10 e5, PS)” the target mRNA inhibition (HepG2, 4 µM) was 40%.

With “GACTACTTTATAGGCCAGAC (sugars e5 d10 e5, PS)” the target mRNA inhibition (HepG2, 4 µM) was 64% and 74% and the target mRNA inhibition (HepG2, 12 µM) was 80%.

Work on “GAGGACTGCAACGGAAACCC (sugars e5 d10 e5, PS)” yielded a target mRNA inhibition (HepG2, 4 µM) of 24%.

Sequence “GATTACAGTGTTTAATG (sugars e2 k2 d8 k2 e3, PS)” has a target mRNA inhibition (HepG2, 5 µM) of 54%.

With “GATTTAAGTCTGGCAAA (sugars e2 k2 d9 k2 e2, PS)” the target mRNA inhibition (HepG2, 5 µM) was 35%.

“GCAATGGTCTCCTGAGAGTG (sugars e5 d10 e5, PS)” was tested, and the target mRNA inhibition (HepG2, 5 µM) was 57%.

In the case of “GCAGGATAACAGATGAG (sugars e3 k2 d7 k2 e3, PS)”, the target mRNA inhibition (HepG2, 0.1875 µM) is reported as 39%, the target mRNA inhibition (HepG2, 0.75 µM) is reported as 60% and the target mRNA inhibition (HepG2, 3 µM) is reported as 58% and 80%. For the same sequence, the target mRNA inhibition (HepG2, 12 µM) was 90%.

“GCCACGCCGAGGTCCTGGTT (sugars e5 d10 e5, PS)” showed a target mRNA inhibition (HepG2, 4 µM) of 38%.

For “GCCCAAGTCTCCAACATGCC (sugars e5 d10 e5, PS)”, the target mRNA inhibition (HepG2, 5 µM) was 61% and 53%.

In the case of “GCCTCAGACTACATCCA (sugars e2 k2 d8 k2 e3, PS)”, the target mRNA inhibition (HepG2, 4 µM) is reported as 69%.

With “GCCTCATAATAAGTGCC (sugars e2 k2 d9 k2 e2, PS)” the target mRNA inhibition (HepG2, 5 µM) was 33%.

Sequence “GCCTCGCCCACTCTGGCCCC (sugars e5 d10 e5, PS)” has a target mRNA inhibition (HepG2, 4 µM) of 37%.

For “GCTAGCAGGATAACAGA (sugars e2 k2 d9 k2 e2, PS)”, the target mRNA inhibition (HepG2, 4 µM) was 43%.

In the case of “GCTAGCAGGATAACAGA (sugars e3 k2 d7 k2 e3, PS)”, the target mRNA inhibition (HepG2, 3 µM) is reported as 10%.

With “GCTTCCCCACACCTTCAC (sugars e5 d8 e5, linkages s1 o3 s9 o2 s2)” the target mRNA inhibition (A431, 0.12 µM) was 0%, the target mRNA inhibition (A431, 0.6 µM) was 1% and the target mRNA inhibition (A431, 3 µM) was 0%. For the same sequence, the target mRNA inhibition (A431, 15 µM) was 5%, the target mRNA inhibition (HepG2, 0.222 µM) was 8% and the target mRNA inhibition (HepG2, 0.667 µM) was 29%. For the same sequence, the target mRNA inhibition (HepG2, 2 µM) was 46% and the target mRNA inhibition (HepG2, 6 µM) was 76%.

With “GGAATCCATGCAGGCCT (sugars e3 k2 d7 k2 e3, PS)” the target mRNA inhibition (HepG2, 3 µM) was 7%.

Sequence “GGACCTGCACTGGTACA (sugars e3 k2 d7 k2 e3, PS)” has a target mRNA inhibition (HepG2, 3 µM) of 7%.

“GGATACATTTCTACAG (sugars kekeddddddddekek, linkages s1 o3 s8 o1 s2)” showed a target mRNA inhibition (A431, 0.12 µM) of 0%, a target mRNA inhibition (A431, 0.6 µM) of 0% and a target mRNA inhibition (A431, 3 µM) of 0%. For the same sequence, the target mRNA inhibition (A431, 15 µM) was 14%.

“GGATACATTTCTACAGC (sugars e2 k2 d9 k2 e2, PS)” gave a target mRNA inhibition (HepG2, 0.1875 µM) of 44%, a target mRNA inhibition (HepG2, 0.75 µM) of 67% and a target mRNA inhibition (HepG2, 3 µM) of 89%. It also gave a target mRNA inhibition (HepG2, 4 µM) of 84% and a target mRNA inhibition (HepG2, 12 µM) of 94%.

Work on “GGATACATTTCTACAGC (sugars e4 k1 d8 k1 e3, linkages s1 o3 s9 o1 s2)” yielded a target mRNA inhibition (A431, 0.062 µM) of 8%, a target mRNA inhibition (A431, 0.185 µM) of 7% and a target mRNA inhibition (A431, 0.556 µM) of 30%. For the same sequence, the target mRNA inhibition (A431, 1.667 µM) was 33%, the target mRNA inhibition (A431, 5 µM) was 66% and the target mRNA inhibition (A431, 15 µM) was 59%. For the same sequence, the target mRNA inhibition (SH-SY5Y, 0.062 µM) was 9%, the target mRNA inhibition (SH-SY5Y, 0.185 µM) was 0% and the target mRNA inhibition (SH-SY5Y, 0.556 µM) was 12%. It also gave a target mRNA inhibition (SH-SY5Y, 1.667 µM) of 33%, a target mRNA inhibition (SH-SY5Y, 5 µM) of 65% and a target mRNA inhibition (SH-SY5Y, 15 µM) of 76%.

“GGATACATTTCTACAGC (sugars e5 d8 k2 e2, linkages s1 o3 s9 o1 s2)” was tested, and the target mRNA inhibition (A431, 0.062 µM) was 2%, the target mRNA inhibition (A431, 0.185 µM) was 4% and the target mRNA inhibition (A431, 0.556 µM) was 15%. It also gave a target mRNA inhibition (A431, 1.667 µM) of 19%, a target mRNA inhibition (A431, 5 µM) of 37% and a target mRNA inhibition (A431, 15 µM) of 44%. The target mRNA inhibition (SH-SY5Y, 0.062 µM) was 0%, the target mRNA inhibition (SH-SY5Y, 0.185 µM) was 0% and the target mRNA inhibition (SH-SY5Y, 0.556 µM) was 12%. The target mRNA inhibition (SH-SY5Y, 1.667 µM) was 30%, the target mRNA inhibition (SH-SY5Y, 5 µM) was 56% and the target mRNA inhibition (SH-SY5Y, 15 µM) was 68%.

Sequence “GGATACATTTCTACAGCT (sugars e5 d8 e5, linkages s1 o3 s9 o2 s2)” has a target mRNA inhibition (A431, 0.12 µM) of 0%, a target mRNA inhibition (A431, 0.6 µM) of 25% and a target mRNA inhibition (A431, 3 µM) of 29%. It also gave a target mRNA inhibition (A431, 15 µM) of 50%, a target mRNA inhibition (HepG2, 0.222 µM) of 38% and a target mRNA inhibition (HepG2, 0.667 µM) of 62%. For the same sequence, the target mRNA inhibition (HepG2, 2 µM) was 82% and the target mRNA inhibition (HepG2, 6 µM) was 94%.

Sequence “GGCAAAATACAGGTCAT (sugars e3 k2 d7 k2 e3, PS)” has a target mRNA inhibition (HepG2, 3 µM) of 39%.

With “GGCCAATGATGCAATGGTCT (sugars e5 d10 e5, PS)” the target mRNA inhibition (HepG2, 5 µM) was 9%.

“GGCCACACCATCTTTGTCAG (sugars e5 d10 e5, PS)” was tested, and the target mRNA inhibition (HepG2, 5 µM) was 23% and 5%.

Sequence “GGCGATCCCAATTACAC (sugars e2 k2 d9 k2 e2, PS)” has a target mRNA inhibition (HepG2, 4 µM) of 66%.

“GGGCCTCAGACTACATC (sugars e2 k2 d9 k2 e2, PS)” gave a target mRNA inhibition (HepG2, 4 µM) of 58%.

“GGGTTTTTATTCACAGG (sugars e3 k2 d7 k2 e3, PS)” showed a target mRNA inhibition (HepG2, 3 µM) of 17%.

For “GGTCATTGAAACAGACA (sugars e3 k2 d7 k2 e3, PS)”, the target mRNA inhibition (HepG2, 3 µM) was 11%.

“GGTCCATTACTTTCCTT (sugars e3 k2 d7 k2 e3, PS)” was tested, and the target mRNA inhibition (HepG2, 3 µM) was 18%.

“GGTTTTTATTCACAGGC (sugars e2 k2 d9 k2 e2, PS)” gave a target mRNA inhibition (HepG2, 4 µM) of 45%, a target mRNA inhibition (HepG2, 5 µM) of 57% and a target mRNA inhibition (HepG2, 12 µM) of 51%.

“GGTTTTTATTCACAGGC (sugars e3 k2 d7 k2 e3, PS)” was tested, and the target mRNA inhibition (HepG2, 3 µM) was 22%.

With “GTCATTGAAACAGACAT (sugars e3 k2 d7 k2 e3, PS)” the target mRNA inhibition (HepG2, 3 µM) was 23%.

In the case of “GTCCATTACTTTCCTTC (sugars e3 k2 d7 k2 e3, PS)”, the target mRNA inhibition (HepG2, 3 µM) is reported as 33%.

With “GTCCTTTAATGCTTCCCCAC (sugars e5 d10 e5, PS)” the target mRNA inhibition (HepG2, 4 µM) was 9%.

Work on “GTCGCCCTTCAGCACGC (sugars e2 k2 d9 k2 e2, PS)” yielded a target mRNA inhibition (HepG2, 4 µM) of 72%.

For “GTCGCCCTTCAGCACGCA (sugars e5 d8 e5, linkages s1 o3 s9 o2 s2)”, the target mRNA inhibition (A431, 0.062 µM) was 10%, the target mRNA inhibition (A431, 0.185 µM) was 11% and the target mRNA inhibition (A431, 0.556 µM) was 11%. It also gave a target mRNA inhibition (A431, 1.667 µM) of 3%, a target mRNA inhibition (A431, 5 µM) of 18% and a target mRNA inhibition (A431, 15 µM) of 4%. It also gave a target mRNA inhibition (SH-SY5Y, 0.062 µM) of 13%, a target mRNA inhibition (SH-SY5Y, 0.185 µM) of 4% and a target mRNA inhibition (SH-SY5Y, 0.556 µM) of 5%. The target mRNA inhibition (SH-SY5Y, 1.667 µM) was 40%, the target mRNA inhibition (SH-SY5Y, 5 µM) was 52% and the target mRNA inhibition (SH-SY5Y, 15 µM) was 77%.

“GTCTCCGCGACTACTTTATA (sugars e5 d10 e5, PS)” showed a target mRNA inhibition (HepG2, 4 µM) of 22%.

Sequence “GTCTCCTGAGAGTGAGATCA (sugars e5 d10 e5, PS)” has a target mRNA inhibition (HepG2, 5 µM) of 23%.

“GTCTGGCAAAATACAGG (sugars e2 k2 d9 k2 e2, PS)” showed a target mRNA inhibition (HepG2, 5 µM) of 38%.

For “GTGATTTAAGTCTGGCA (sugars e2 k2 d9 k2 e2, PS)”, the target mRNA inhibition (HepG2, 5 µM) was 69%.

“GTGCCATACAGGGTTTT (sugars e2 k2 d8 k2 e3, PS)” gave a target mRNA inhibition (HepG2, 5 µM) of 20%.

“GTGCGGCCAATGATGCAATG (sugars e5 d10 e5, PS)” was tested, and the target mRNA inhibition (HepG2, 5 µM) was 12%.
